# Measurements reported in publication PMC10897212, “Structural insight into the allosteric inhibition of human sodium-calcium exchanger NCX1 by XIP and SEA0400” (The EMBO Journal, 2023).
# Target: T1, Na+/Ca2+ exchanger NCX1.3 (Homo sapiens, UniProt P32418)
# T1 construct: gene SLC8A1; full-length wild-type human NCX1.3 (UniProtKB P32418-2); model residues 51–283, 405–501, 518–637, 654–720, and 736–937
# Experiment: cryo-EM structure at […] Å; also CPM thermofluor shift (~[…] °C) and Fura-2 Ca2+ uptake inhibition at […] in HEK293T cells
# Assay type: binding
smiles,measurement,value
CCOc1ccc(Oc2ccc(OCc3cc(F)ccc3F)cc2)c(N)c1 [SEA0400],cryo-EM structure at 3.5 Å; also CPM thermofluor shift (~10 °C) and Fura-2 Ca2+,"The SEA0400 molecule is allocated within a negatively charged cavity surrounded by TM2ab, TM4, TM5, and TM8"
